Assay results from ChEMBL document CHEMBL3046904, “Synthesis, characterization, bioactivity, and POM analyses of isothiochromeno[3,4-e][1,2]oxazines” (2013).

Legend:
Format in all cases: functional
MCF7 = experiment: Cytotoxicity against Homo sapiens (human) MCF7 assessed as cell growth at 10^-4 M after 48 hr by Alamar Blue assay; settings: MCF7, 48 h, read-out: Activity
SF-268 = experiment: Cytotoxicity against Homo sapiens (human) SF268 assessed as cell growth at 10^-4 M after 48 hr by Alamar Blue assay; settings: SF-268, 48 h, read-out: Activity
NCI-H460 = experiment: Cytotoxicity against Homo sapiens (human) NCI-H460 assessed as cell growth at 10^-4 M after 48 hr by Alamar Blue assay; settings: NCI-H460, 48 h, read-out: Activity

COc1ccc(C2=NOC3=c4ccccc4=CSC3=C2c2ccc(C)cc2)cc1
growth at 100 µM (MCF7): 86%
growth at 100 µM (SF-268): 97%
growth at 100 µM (NCI-H460): 96%

COc1ccc(C2=NOC3=c4ccccc4=CSC3=C2c2ccccc2)cc1
growth at 100 µM (MCF7): 97%
growth at 100 µM (SF-268): 106%
growth at 100 µM (NCI-H460): 101%

Cc1ccc(C2=C3SC=c4ccccc4=C3ON=C2c2ccc([N+](=O)[O-])cc2)cc1
growth at 100 µM (MCF7): 97%
growth at 100 µM (SF-268): 83%
growth at 100 µM (NCI-H460): 99%

C1=c2ccccc2=C2ON=C(c3ccccc3)C(c3ccccc3)=C2S1
growth at 100 µM (MCF7): 104%
growth at 100 µM (SF-268): 97%
growth at 100 µM (NCI-H460): 94%

Clc1ccc(C2=NOC3=c4ccccc4=CSC3=C2c2ccccc2)cc1
growth at 100 µM (MCF7): 95%
growth at 100 µM (SF-268): 95%
growth at 100 µM (NCI-H460): 92%

O=[N+]([O-])c1ccc(C2=NOC3=c4ccccc4=CSC3=C2c2ccccc2)cc1
growth at 100 µM (MCF7): 62%
growth at 100 µM (SF-268): 101%
growth at 100 µM (NCI-H460): 100%

Cc1ccc(C2=NOC3=c4ccccc4=CSC3=C2c2ccccc2)cc1
growth at 100 µM (MCF7): 51%
growth at 100 µM (SF-268): 66%
growth at 100 µM (NCI-H460): 92%
